Results: PMC8615111, “Phenolic Thiazoles with Antioxidant and Antiradical Activity. Synthesis, In Vitro Evaluation, Toxicity, Electrochemical Behavior, Quantum Studies and Antimicrobial Screening” (Antioxidants, 2021)

Columns and labels:
[1] = ABTS˙^+ radical scavenging assay; assay type: biochemical
Fe^2+ chelation assay = assay type: biochemical
[2] = Ferric ions (Fe^3+) reducing antioxidant power by cyclic voltammetry
In short: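 Fe3+/Fe2+ redox peaks of potassium ferricyanide followed by cyclic voltammetry before and after compound addition, in 0.1 M HClO4 (pH 1.2) on screen-printed graphite and gold electrodes. Compounds at 0.5 mM and 2 mM (diluted from 5 mM stocks); antioxidant action read as changes in the ferricyanide peaks.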

[3] = DPPH˙ radical scavenging by cyclic voltammetry; settings: for Eox (V): 2nd Eox; for Ered (V): 2nd Ered column; for Ired (μA): 2nd Ired
[4] = TEMPO scavenging by differential pulse voltammetry; settings: 2 mM TEMPO, one hour incubation, 0.1 M HClO4, DPV
In short: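 Scavenging of the stable nitroxide radical TEMPO by the compounds, measured as antioxidant activity by differential pulse voltammetry.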

E. coli ATCC 8739 = assay: Antimicrobial activity, modified microdilution; assay type: cell-based; settings: Escherichia coli, ATCC8739; E. coli ATCC 8739; read-out: MIC

With `Cc1csc(N/N=C/c2ccc(O)cc2O)n1.Cl` [Compound 5b, (E)-2-(2,4-dihydroxybenzylidene)-1-(4-methylthiazol-2-yl)hydrazin-1-ium chloride] the “% of ABTS˙^+ Scavenged” value ([1]; 0.5 µg/mL) was 35.55%, the “% of ABTS˙^+ Scavenged” value ([1]; 0.75 µg/mL) was 41.10% and the “% of ABTS˙^+ Scavenged” value ([1]; 1 µg/mL) was 48.40%. The “% of ABTS˙^+ Scavenged” value ([1]; 1.5 µg/mL) was 66.50%, the “% of ABTS˙^+ Scavenged” value ([1]; 2.5 µg/mL) was 98.09% and the IC50 ([1]; ABTS˙^+ scavenging) was 1.00 µg/mL. For the same molecule, the “Chelation Capacity (%), ferrous ions” value (Fe^2+ chelation assay; 50 µg/mL) was 1.18%, the “Chelation Capacity (%), ferrous ions” value (Fe^2+ chelation assay; 100 µg/mL) was 8.95% and the “Chelation Capacity (%), ferrous ions” value (Fe^2+ chelation assay; 150 µg/mL) was 18.42%. For the same molecule, the “Chelation Capacity (%), ferrous ions” value (Fe^2+ chelation assay; 200 µg/mL) was 31.33%, the “Eox (V)” value ([2]; compound 0.5 mM + Fe^3+/Fe^2+ (0.5 mM potassium ferricyanide), 1st Eox column) was 0.152 V and the “Iox (μA)” value ([2]; compound 0.5 mM + Fe^3+/Fe^2+ (0.5 mM potassium ferricyanide), 1st Iox column) was 5.57 μA. The “Ered (V)” value ([2]; compound + Fe^3+/Fe^2+, 1st Ered) was 0.093 V, the “Ired (μA)” value ([2]; compound + Fe^3+/Fe^2+, 1st Ired) was −8.66 μA and the “Eox (V)” value ([2]; compound + Fe^3+/Fe^2+, 2nd Eox) was 0.342 V. The “Ered (V)” value ([2]; compound + Fe^3+/Fe^2+, 2nd Ered column) was 0.323 V, the “Iox (μA)” value ([2]; compound + Fe^3+/Fe^2+, 2nd Iox column) was 22.3 μA and the “Ired (μA)” value ([2]; compound + Fe^3+/Fe^2+, 2nd Ired) was −1.52 μA. The “Eox (V)” value ([2]; compound + Fe^3+/Fe^2+, 3rd Eox column) was 0.505 V, the “Iox (μA)” value ([2]; compound + Fe^3+/Fe^2+, 3rd Iox column) was 1.20 μA and the “Eox (V)” value ([2]; compound + Fe^3+/Fe^2+, 4th Eox column) was 0.506 V. The “Iox (μA)” value ([2]; compound + Fe^3+/Fe^2+, 4th Iox column) was 8.68 μA, the “Eox (V)” value ([2]; compound + Fe^3+/Fe^2+, 5th Eox) was 0.806 V and the “Iox (μA)” value ([2]; compound + Fe^3+/Fe^2+, 5th Iox column) was 8.68 μA. The “Eox (V)” value ([2]; compound alone 0.5 mM in 0.1 M HClO4, 2nd Eox) was 0.355 V, the “Ered (V)” value ([2]; compound alone 0.5 mM in 0.1 M HClO4, 2nd Ered column) was 0.327 V and the “Iox (μA)” value ([2]; compound alone 0.5 mM in 0.1 M HClO4, 2nd Iox column) was 15.68 μA. The “Ired (μA)” value ([2]; compound alone 0.5 mM in 0.1 M HClO4, 2nd Ired) was −1.56 μA, the “Iox (μA)” value ([3]; compound + DPPH, 30 min) was 33.3 μA and the “Eox (V)” value ([3]; compound + DPPH, 30 min) was 0.349 V. The “Ered (V)” value ([3]; compound + DPPH, 30 min) was 0.145 V, the “Ired (μA)” value ([3]; compound + DPPH, 30 min) was −7.56 μA and the “Iox (μA)” value ([3]; compound alone) was 31.76 μA. The “Eox (V)” value ([3]; compound alone) was 0.357 V, the “Ered (V)” value ([3]; compound alone) was 0.11 V and the “Ired (μA)” value ([3]; compound alone) was −10.26 μA. For the same molecule, the “oxidation signal for TEMPO after incubation with the compound” value [4] was “both the signal shift to higher oxidation potentials and its decrease” and the MIC (E. coli ATCC 8739) was over 100 µg/mL.
